A melting point compilation (Tetko et al.; mined from patent text by program, amines drawn as free bases though some values may be those of a salt)

SMILES | melting point [°C]
CC[C@H](CC[N+](=O)[O-])C(=O)N[C@@H](Cc1ccccc1)C(=O)OC | 86.2 to 87.8
Cc1cccc(C2c3ccccc3S(=O)(=O)N2C)c1 (single isomer, unassigned; (+)) | 154
NC(Cc1ccccc1)C(O)C(O)C(N)Cc1ccccc1 (stereo not given) | 115 to 119
COc1ccc(CCN2CCC(Cc3nc4ncnc(O)c4n3Cc3ccc(F)cc3)CC2)cc1 | 122
Cc1cnc(Sc2nc(C)c(CC(=O)O)s2)c(C(=O)O)c1 | 229 to 231
CC(=O)Oc1cccc(C(=Cc2ccccc2)c2cccc(OC(C)=O)c2OC(C)=O)c1OC(C)=O | 163
CC(C)(C)c1ccc(COCCCCCCNC(=O)c2cc(-c3cccc(C(F)(F)F)c3)c(OCC(=O)O)c(-c3cccc(C(F)(F)F)c3)c2)cc1 | 156 to 158
N#CNc1ccccc1I | 117 to 118
CCCCCCCCCCCCCCOc1ccc(CN2C(=O)c3ccncc3C2=O)cc1 | 76 to 77
COc1ccc(CC#Cc2ccc3c(c2)c(=O)n(Cc2ccccc2)c2nncn32)cc1 | 267
OCCc1ccc(OCc2coc(/C=C/c3ccccc3)n2)cc1 | 123 to 124
CCOc1nc(C(F)(F)F)cc(=O)n1-c1cc(OC(C)C)c(Br)cc1F | 106 to 108
CCOC(=O)c1nn(CC)c2nccc(O)c12 | 85 to 87
COCCNC(=O)c1cccc(-c2cccc3c(F)c(Cc4cccc(C(F)(F)F)c4)sc23)c1 | 115 to 116
C=CCn1c(=O)n(CCCN2CCC3(CC2)C(=O)NCN3c2ccccc2)c2ccccc21 | 198
O=S(=O)(c1ccc(Cl)cc1)C(c1cccnc1)c1cc(F)ccc1F (stereo not given) | 130 to 131
O=C(NC(=O)c1c(F)cccc1F)Nc1ccc(Oc2ccc(Cl)cc2)c(Cl)c1 | 194 to 196
Cn1c(=O)c2cc(C(=O)O)cn2c2ccccc21 | 330 to 333
CCCOc1ccc(C(C)=O)cc1C(=O)OC | 49
CC(C)c1[nH]nc(C(N)=O)c1N | 178 to 179
Cc1ccnc(C(O)c2sc(NC(=N)N)nc2C)c1 (stereo not given) | 150 to 152
CC(=O)N1[C@@H](c2ccc(F)cc2)SC(C)(C)[C@@H]1C(=O)O | 144 to 146
COC(=O)C1Cc2c(ncn2Cc2ccccc2)CN1Cc1ccccc1 (stereo not given) | 91 to 93
O=c1[nH]c2cnc(-c3ccccc3)nc2n1Cc1ccccc1 | 286 to 287
O=C1NC(=O)C(=Cc2ccc([N+](=O)[O-])cc2)S1 | 272 to 273

SMILES | melting point [°C]
COC(=O)N(CC(=O)O)C(=O)c1c(Cl)ccc2c(C(F)(F)F)c(OC)ccc12 | 162 to 165
CCCN(Cc1ccc(-c2ccccc2-c2nnn[nH]2)cc1)c1ncncc1C(=O)OCC | 160 to 162
CCc1nc2cc(S(N)(=O)=O)c(Cl)cc2n1-c1ccc(CCOC(=O)NS(=O)(=O)c2ccc(C)cc2)cc1 | 110 to 115
O=[N+]([O-])c1ccc(CNc2ncnc3c2ncn3C2OC(CO)C(O)C2O)cc1 (stereo not given) | 168 to 169
CC(=O)N(C#N)c1ccc(Cc2ccc(N(C#N)C(C)=O)cc2)cc1 | 134 to 136
COc1cc(OCC(=O)O)cc(C)c1SCc1sc(-c2ccc(C(F)(F)F)cc2)nc1C | 164 to 165
CCN1C(=O)CCCc2cc(Nc3ncc(Cl)c(Nc4ccccc4S(=O)(=O)C(C)C)n3)c(OC)cc21 | 195 to 197
O=c1ccc(-c2c(-c3ccccc3)nn3ccccc23)nn1C1CN2CCC1CC2 (stereo not given) | 191 to 193
Cn1nc(N)c2sc3cc(O)c(O)cc3c21 | 305 to 307
Cc1c(C(=O)O)sc2c(Br)cccc12 | 311 to 312
COC(=O)C(C)Oc1cc(Cl)ccc1CO (stereo not given) | 51 to 52
O=C1c2cc(Oc3ccc(F)cc3)ccc2CN1Cc1cccnc1 | 115 to 116
COC(=O)c1cc(S(=O)(=O)Cl)cc(C(=O)OC)c1[N+](=O)[O-] | 124 to 125
COCC(C)N(Cc1ccc(OC)c(OC)c1)C(=O)C(Cl)Cl (stereo not given) | 75 to 76
CCc1cc2c(s1)-n1nc(C(=O)O)nc1CN=C2c1ccccc1Cl | 134 to 136
Cc1ccnc(NC(c2ccc([N+](=O)[O-])cc2)c2ccccc2O)n1 (stereo not given) | 136 to 145
Cc1noc(NS(=O)(=O)c2ccccc2-c2ccc(-c3ncco3)cc2CN(C)C(=O)Cc2ccccc2)c1C | 114 to 122
CCN1C(=O)CCCc2c1ccc(Nc1ncc(Cl)c(Nc3ccccc3S(=O)(=O)N(C)C)n1)c2OC | 183
O=S(=O)(Nc1ccccc1OC(c1ccncc1)C1CCNCC1)c1ccc2cc(Br)ccc2c1 (stereo not given) | 197 to 200
OCCCc1conc1-c1ccc(Cl)c(Cl)c1 | 62 to 63
COCc1c(C(=O)NC(C)C)ncc2[nH]c3cccc(Oc4ccc(Cl)cc4)c3c12 | 255
CCc1nccn1-c1nc(-c2ccc(Cl)cc2)c(CCCOc2ccccc2C)o1 | 91 to 92
Cc1c(C(F)(F)C(F)(F)F)oc2c(C=O)cccc12 | 78
Cc1c(NC(=O)c2ccc(-c3ccc(F)cc3)cc2)ccc2cc(CN3CCC3)cnc12 | 153 to 155
Cc1ccc(-c2c(C(=O)NCc3cc(C(F)(F)F)cc(C(F)(F)F)c3)n(CCCCO)c(=O)c3ncccc23)cc1 | 187 to 188
